Patent US7256185B1, “Control of selective estrogen receptor modulators” (Eastern Virginia Medical School, priority 1997, dated 2007)
Read-outs that look alike come from different tables or passages of the source.

Procedure: 1. Clomiphene is used alone at 100 mg/day for the treatment of endometriosis. […] Levonorgestrel at 75 mcg/day is then also administered.
2. Raloxifene at 500 mg/day and medroxprogesterone acetate at 12 mg/day were administrated to treat leiomyoma.
5. Clomiphene is used alone at 100 mg/day for the treatment of endometriosis. […] Danazol at 100 to 800 mg/day is then also administered.

[1] = raloxifene 500 mg/day and medroxprogesterone acetate 12 mg/day administered together, leiomyoma
[2] = clomiphene ZU isomer 50 mg/day and norgestimate 100 mcg/day coadministered

Row | SMILES | serum estrogen [1] | serum estrogen [2] | also measured
1 | O=C(c1ccc(OCCN2CCCCC2)cc1)c1c(-c2ccc(O)cc2)sc2cc(O)ccc12 [Raloxifene] | remained at physiological levels |  | 
2 | CC(=O)O[C@]1(C(C)=O)CC[C@H]2[C@@H]3C[C@H](C)C4=CC(=O)CC[C@]4(C)[C@H]3CC[C@@]21C [medroxprogesterone acetate] | remained at physiological levels |  | 
3 | CCN(CC)CCOc1ccc(/C(=C(\Cl)c2ccccc2)c2ccccc2)cc1 (single isomer, unassigned) [Clomiphene ZU isomer] |  | remained at physiological levels | 
4 | C#C[C@]1(O)CC[C@H]2[C@@H]3CCC4=Cc5oncc5C[C@]4(C)[C@H]3CC[C@@]21C [Danazol, danazol] |  |  | serum estrogen (danazol 100 to 800 mg/day added to clomiphene 100 mg/day after serum estrogen reached 500 pg/ml, endometriosis): retreated to physiological value
5 | C#C[C@]1(OC(C)=O)CC[C@H]2[C@@H]3CCC4=CC(=NO)CC[C@@H]4[C@H]3CC[C@@]21CC (mixture of isomers) [norgestimate] |  | remained at physiological levels | 
